Data reported in PubChem BioAssay AID1963825 (Molecular Pharmacology Branch, DTP, NCI, 2024).

Experiment: Anticancer human tumor 997537-175-T-J1-PDC patient-derived colon adenocarcinoma cell line growth inhibition [POLQ]
Settings: 997537-175-T-J1-PDC complex spheroid viability, combination with POLQ inhibitors; for IC50: curve of first compound; for viability, T/C: stronger effect = lower value
In short: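 Patient-derived tumour cells were co-cultured with HUVEC and mesenchymal stem cells as multicellular spheroids at 37 °C. They were treated with POLQ inhibitors (novobiocin, ART-558, RP6685) alone or combined with other agents. Top concentrations were at or near clinical Cmax (otherwise 10 microM; SN-38 at 1 microM), decreasing in half-log steps.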
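Note: luminescence signal used as a surrogate for viable cells; spheroids exposed to drugs for seven days before readout.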

## CC(=O)O[C@H]1C(=O)[C@@]2(C)[C@H]([C@H](OC(=O)c3ccccc3)[C@]3(O)C[C@H](OC(=O)[C@H](O)[C@@H](NC(=O)c4ccccc4)c4ccccc4)C(C)=C1C3(C)C)[C@]1(OC(C)=O)CO[C@@H]1C[C@@H]2O + Nc1ccc(C#CCN(C(=O)Cc2ncc(C(F)(F)F)cc2C(F)(F)F)c2ccc(F)cc2)nn1
Second compound 0.0316 µM
  IC50: 0.027 µM
Second compound 0.1 µM
  IC50: 0.0501 µM
Second compound 0.316 µM
  IC50: 0.0168 µM
Second compound 1 µM
  IC50: 0.0148 µM
Second compound 3.16 µM
  IC50: 0.0325 µM
Second compound 10 µM
  IC50: 0.0185 µM
Second compound 0.0316 µM, first compound 0.00949 µM
  viability, T/C: 50.5%
Second compound 0.0316 µM, first compound 0.03 µM
  viability, T/C: 57.6%
Second compound 0.0316 µM, first compound 0.0949 µM
  viability, T/C: 32.5%
Second compound 0.0316 µM, first compound 0.3 µM
  viability, T/C: 55.7%
Second compound 0.0316 µM, first compound 0.949 µM
  viability, T/C: 33.8%
Second compound 0.0316 µM, first compound 3 µM
  viability, T/C: 34.3%
Second compound 0.1 µM, first compound 0.00949 µM
  viability, T/C: 70%
Second compound 0.1 µM, first compound 0.03 µM
  viability, T/C: 28.4%
Second compound 0.1 µM, first compound 0.0949 µM
  viability, T/C: 58%
Second compound 0.1 µM, first compound 0.3 µM
  viability, T/C: 46.9%
Second compound 0.1 µM, first compound 0.949 µM
  viability, T/C: 23.3%
Second compound 0.1 µM, first compound 3 µM
  viability, T/C: 23.3%
Second compound 0.316 µM, first compound 0.00949 µM
  viability, T/C: 69.7%
Second compound 0.316 µM, first compound 0.03 µM
  viability, T/C: 27.3%
Second compound 0.316 µM, first compound 0.0949 µM
  viability, T/C: 27.9%
Second compound 0.316 µM, first compound 0.3 µM
  viability, T/C: 16.8%
Second compound 0.316 µM, first compound 0.949 µM
  viability, T/C: 41.3%
Second compound 0.316 µM, first compound 3 µM
  viability, T/C: 37.1%
Second compound 1 µM, first compound 0.00949 µM
  viability, T/C: 55.2%
Second compound 1 µM, first compound 0.03 µM
  viability, T/C: 44.6%
Second compound 1 µM, first compound 0.0949 µM
  viability, T/C: 31.6%
Second compound 1 µM, first compound 0.3 µM
  viability, T/C: 25.8%
Second compound 1 µM, first compound 0.949 µM
  viability, T/C: 30.1%
Second compound 1 µM, first compound 3 µM
  viability, T/C: 38.3%
Second compound 3.16 µM, first compound 0.00949 µM
  viability, T/C: 54.5%
Second compound 3.16 µM, first compound 0.03 µM
  viability, T/C: 48.2%
Second compound 3.16 µM, first compound 0.0949 µM
  viability, T/C: 44.2%
Second compound 3.16 µM, first compound 0.3 µM
  viability, T/C: 36%
Second compound 3.16 µM, first compound 0.949 µM
  viability, T/C: 24.6%
Second compound 3.16 µM, first compound 3 µM
  viability, T/C: 31%
Second compound 10 µM, first compound 0.00949 µM
  viability, T/C: 68.6%
Second compound 10 µM, first compound 0.03 µM
  viability, T/C: 35.8%
Second compound 10 µM, first compound 0.0949 µM
  viability, T/C: 37.6%
Second compound 10 µM, first compound 0.3 µM
  viability, T/C: 33.4%
Second compound 10 µM, first compound 0.949 µM
  viability, T/C: 38.5%
Second compound 10 µM, first compound 3 µM
  viability, T/C: 23.9%
